pEC50, pIC50: −log10 of the molar value.
Tests used:
A549 cells = experiment: Proliferation Assay (A549 cell viability, Cell Titer Fluor); type: cell-based; conditions: Homo sapiens, 72 hours
Outline: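 Compound was added to A549 cells (1000/well, pre-grown 24 h in RPMI 1640 plus 10% dialyzed FBS) at 0.5% DMSO and left 72 h under 37 °C, 5% CO2, ambient O2. Live-cell fluorescence (Cell Titer Fluor) gave the EC50.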

[1] = target: T1, purified recombinant human GAC (GLS1) (Homo sapiens, UniProt O94925); experiment: GLS1 Enzymatic Activity Assay (dual-coupled enzymatic assay); type: biochemical
T1 sequence (O94925 55-598 isoform O94925-3 limits assumed): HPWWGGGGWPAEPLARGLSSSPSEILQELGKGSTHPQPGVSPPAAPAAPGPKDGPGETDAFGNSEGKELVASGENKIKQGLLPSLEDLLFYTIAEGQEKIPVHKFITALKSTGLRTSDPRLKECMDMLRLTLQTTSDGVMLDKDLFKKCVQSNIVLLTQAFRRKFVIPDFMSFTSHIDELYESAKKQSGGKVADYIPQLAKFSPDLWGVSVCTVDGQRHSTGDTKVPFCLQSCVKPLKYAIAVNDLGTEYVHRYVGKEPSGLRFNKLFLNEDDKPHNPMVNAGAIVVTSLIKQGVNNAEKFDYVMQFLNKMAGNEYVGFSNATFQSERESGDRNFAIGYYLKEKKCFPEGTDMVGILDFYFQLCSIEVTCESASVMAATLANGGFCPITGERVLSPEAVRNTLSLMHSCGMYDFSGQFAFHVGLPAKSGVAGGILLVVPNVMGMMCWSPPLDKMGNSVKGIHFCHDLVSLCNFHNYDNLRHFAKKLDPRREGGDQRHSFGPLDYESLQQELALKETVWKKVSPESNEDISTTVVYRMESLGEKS
Outline: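 GAC activity measured by coupling glutamate to glutamate oxidase and HRP, generating resorufin from Amplex UltraRed. Enzyme (2 nM) preincubated with 50 mM potassium phosphate 10 min at room temperature, then inhibitor 10 min; 1 mM glutamine substrate, 1% DMSO. Fluorescence 530/590 nm, kinetic or 20-min endpoint; IC50 from four-parameter logistic fit.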

| SMILES | pEC50 (A549 cells) | pIC50 [1] |
| --- | --- | --- |
| CC(C)(C)OC(=O)N1CC(c2cc3cc(CCCCn4cc(C(=O)NCc5cc(OC(F)(F)F)ccc5F)nn4)nnc3[nH]2)C1 [Example 111, tert-butyl 3-(3-(4-(4-((2-fluoro-5-(trifluoromethoxy)benzyl)carbamoyl)-1H-1,2,3-triazol-1-yl)butyl)-7H-pyrrolo[2,3-c]pyridazin-6-yl)azetidine-1-carboxylate] | > 7.00 | > 7.00 |
| O=C(NCc1ccccn1)c1cn(CCCCc2cc3cc(-c4cccc(OC(F)(F)F)c4)[nH]c3nn2)nn1 [Example 149, N-(pyridin-2-ylmethyl)-1-(4-{6-[3-(trifluoromethoxy)phenyl]-7H-pyrrolo[2,3-c]pyridazin-3-yl}butyl)-1H-1,2,3-triazole-4-carboxamide] | 5.30 to 6.30 | > 7.00 |
| O=C(NCc1ccc(C(F)(F)F)nc1)c1cn(CCCCc2cc3c(-c4ccc(F)cc4F)c(C4CC4)[nH]c3nn2)nn1 [Example 217, 1-(4-(6-cyclopropyl-5-(2,4-difluorophenyl)-7H-pyrrolo[2,3-c]pyridazin-3-yl)butyl)-N-((6-(trifluoromethyl)pyridin-3-yl)methyl)-1H-1,2,3-triazole-4-carboxamide] | 6.30 to 7.00 | > 7.00 |
| O=C(NCc1ccc(Cl)nc1)c1cn(CCCCc2cc3cc(C4CC4)[nH]c3nn2)nn1 [Example 41, N-[(6-chloropyridin-3-yl)methyl]-1-(4-{6-cyclopropyl-7H-pyrrolo[2,3-c]pyridazin-3-yl}butyl)-1H-1,2,3-triazole-4-carboxamide] | 5.30 to 6.30 | 6.30 to 7.00 |
| O=C(NCc1ccccn1)c1nnc(CCCCc2cc3cc(Cc4ccccc4)[nH]c3nn2)s1 [Example 74, 5-(4-{6-benzyl-7H-pyrrolo[2,3-c]pyridazin-3-yl}butyl)-N-(pyridin-2-ylmethyl)-1,3,4-thiadiazole-2-carboxamide] | 6.30 to 7.00 | > 7.00 |
| Cc1ccc(CNC(=O)c2cn(CC(F)CCc3cc4cc(-c5ccccc5F)[nH]c4nn3)nn2)cn1 (stereo not shown) [Example 241, 1-(2-fluoro-4-(6-(2-fluorophenyl)-7H-pyrrolo[2,3-c]pyridazin-3-yl)butyl)-N-((6-methylpyridin-3-yl)methyl)-1H-1,2,3-triazole-4-carboxamide] | > 7.00 | > 7.00 |
| CC(C)(C)OC(=O)N1CC(c2cc3cc(CCCCn4cc(C(=O)NCc5ccc(C(F)(F)F)cn5)nn4)nnc3[nH]2)C1 [Example 201, tert-butyl 3-(3-{4-[4-({[5-(trifluoromethyl)pyridin-2-yl]methyl)carbamoyl)-1H-1,2,3-triazol-1-yl]butyl}-7H-pyrrolo[2,3-c]pyridazin-6-yl)azetidine-1-carboxylate] | 6.30 to 7.00 | > 7.00 |
| COc1cccnc1-c1c(C2CC2)[nH]c2nnc(CCCCn3cc(C(=O)NCc4cccc(OC(F)(F)F)c4)nn3)cc12 [Example 178, 1-{4-[6-cyclopropyl-5-(3-methoxypyridin-2-yl)-7H-pyrrolo[2,3-c]pyridazin-3-yl]butyl}-N-{[3-(trifluoromethoxy)phenyl]methyl}-1H-1,2,3-triazole-4-carboxamide] | 6.30 to 7.00 | > 7.00 |
| Cc1ccc(CNC(=O)c2cn(CCCCc3cc4c(-c5ccc(F)cc5F)c(C5CC5)[nH]c4nn3)nn2)cn1 [Example 147, 1-{4-[6-cyclopropyl-5-(2,4-difluorophenyl)-7H-pyrrolo[2,3-c]pyridazin-3-yl]butyl}-N-[(6-methylpyridin-3-yl)methyl]-1H-1,2,3-triazole-4-carboxamide] | > 7.00 | > 7.00 |
| O=C(NCc1cccc(OC(F)(F)F)c1)c1cn(CCCCc2cc3cc(C4CNC4)[nH]c3nn2)nn1 [Example 107, 1-{4-[6-(azetidin-3-yl)-7H-pyrrolo[2,3-c]pyridazin-3-yl]butyl}-N-{[3-(trifluoromethoxy)phenyl]methyl}-1H-1,2,3-triazole-4-carboxamide] | 5.30 to 6.30 | 6.30 to 7.00 |
| O=C(NCc1ccccn1)c1cn(CCCCc2cc3cc(CC4CCCCC4)[nH]c3nn2)nn1 [Example 85, 1-(4-(6-(cyclohexylmethyl)-7H-pyrrolo[2,3-c]pyridazin-3-yl)butyl)-N-(pyridin-2-ylmethyl)-1H-1,2,3-triazole-4-carboxamide] | > 7.00 | > 7.00 |
| Cc1ccc(CNC(=O)c2cn(CCCCc3cc4c(I)c(C5CC5)[nH]c4nn3)nn2)cn1 [Example 91, 1-(4-{6-cyclopropyl-5-iodo-7H-pyrrolo[2,3-c]pyridazin-3-yl}butyl)-N-[(6-methylpyridin-3-yl)methyl]-1H-1,2,3-triazole-4-carboxamide] | 6.30 to 7.00 | > 7.00 |
| O=C(NCc1ccc(C(F)(F)F)nc1)c1cn(CCCCc2cc3cc(C4CC4)[nH]c3nn2)nn1 [Example 40, 1-(4-{6-cyclopropyl-7H-pyrrolo[2,3-c]pyridazin-3-yl}butyl)-N-{[6-(trifluoromethyl)pyridin-3-yl]methyl}-1H-1,2,3-triazole-4-carboxamide] | 5.30 to 6.30 | > 7.00 |
| O=C(NCc1ccccn1)c1cn(CCCCc2cc3c(Cc4ccccn4)c(C4CC4)[nH]c3nn2)nn1 [Example 126, 1-{4-[6-cyclopropyl-5-(pyridin-2-ylmethyl)-7H-pyrrolo[2,3-c]pyridazin-3-yl]butyl}-N-(pyridin-2-ylmethyl)-1H-1,2,3-triazole-4-carboxamide] | 5.30 to 6.30 | 6.30 to 7.00 |
| O=C(NCC1CCOC1)c1nnc(CCCCc2cc3cc(Cc4ccccc4)[nH]c3nn2)s1 (stereo not shown) [Example 82, 5-(4-{6-benzyl-7H-pyrrolo[2,3-c]pyridazin-3-yl}butyl)-N-(oxolan-3-ylmethyl)-1,3,4-thiadiazole-2-carboxamide] | 5.30 to 6.30 | 6.30 to 7.00 |
| O=C(NCc1cc(OC(F)(F)F)ccc1F)c1cn(CCCCc2cc3cc(C4CN(C(=O)Cc5ccccc5)C4)[nH]c3nn2)nn1 [Example 238, N-{[2-fluoro-5-(trifluoromethoxy)phenyl]methyl)-1-(4-{6-[1-(2-phenylacetyl)azetidin-3-yl]-7H-pyrrolo[2,3-c]pyridazin-3-yl}butyl)-1H-1,2,3-triazole-4-carboxamide] | > 7.00 | > 7.00 |
| O=C(NCc1ccc(C(F)(F)F)cn1)c1cn(CCCCc2cc3c(C4CC4)c(C4CC4)[nH]c3nn2)nn1 [Example 208, 1-(4-{5,6-dicyclopropyl-7H-pyrrolo[2,3-c]pyridazin-3-yl}butyl)-N-{[5-(trifluoromethyl)pyridin-2-yl]methyl}-1H-1,2,3-triazole-4-carboxamide] | 6.30 to 7.00 | > 7.00 |
| CC(C)(O)c1ccnc(CNC(=O)c2cn(CCCCc3cc4cc(C5CC5)[nH]c4nn3)nn2)c1 [Example 17, 1-(4-(6-Cyclopropyl-7H-pyrrolo[2,3-c]pyridazin-3-yl)butyl)-N-((4-(2-hydroxypropan-2-yl)pyridin-2-yl)methyl)-1H-1,2,3-triazole-4-carboxamide 2,2,2-trifluoroacetate] | 5.30 to 6.30 | 6.30 to 7.00 |
| CNC(=O)c1cccc(-c2c(C3CC3)[nH]c3nnc(CCCCn4cc(C(=O)NCc5ccc(C)nc5)nn4)cc23)c1 [Example 158, 1-(4-{6-cyclopropyl-5-[3-(methylcarbamoyl)phenyl]-7H-pyrrolo[2,3-c]pyridazin-3-yl}butyl)-N-[(6-methylpyridin-3-yl)methyl]-1H-1,2,3-triazole-4-carboxamide] | 5.30 to 6.30 | > 7.00 |
| Cn1ccnc1CNC(=O)c1cn(CCCCc2cc3cc(C4CC4)[nH]c3nn2)nn1 [Example 54, 1-(4-{6-cyclopropyl-7H-pyrrolo[2,3-c]pyridazin-3-yl}butyl)-N-[(1-methyl-1H-imidazol-2-yl)methyl]-1H-1,2,3-triazole-4-carboxamide] | < 5.30 | 5.30 to 6.30 |
| COc1ncc(-c2c(C3CC3)[nH]c3nnc(CCCCn4cc(C(=O)NCc5ccc(C)nc5)nn4)cc23)c(OC)n1 [Example 168, 1-{4-[6-cyclopropyl-5-(2,4-dimethoxypyrimidin-5-yl)-7H-pyrrolo[2,3-c]pyridazin-3-yl]butyl}-N-[(6-methylpyridin-3-yl)methyl]-1H-1,2,3-triazole-4-carboxamide] | 5.30 to 6.30 | > 7.00 |
| COC(C)(C)CNC(=O)c1nnc(CCCCc2cc3cc(Cc4ccccc4)[nH]c3nn2)s1 [Example 84, 5-(4-{6-benzyl-7H-pyrrolo[2,3-c]pyridazin-3-yl}butyl)-N-(2-methoxy-2-methylpropyl)-1,3,4-thiadiazole-2-carboxamide] | 5.30 to 6.30 | 6.30 to 7.00 |
| O=C(Cc1ccccc1)Nc1nnc(CCCCc2cc3cc(Cc4ccccc4)[nH]c3nn2)s1 [Example 4, N-(5-(4-(6-benzyl-7H-pyrrolo[2,3-c]pyridazin-3-yl)butyl)-1,3,4-thiadiazol-2-yl)-2-phenylacetamide] | 6.30 to 7.00 | > 7.00 |
